Values after ≈ are worked out from the molar mass of the structure shown. Active and inactive are the calls of the source. No cut-off for these calls is given here.
Experiments:
HeLa [1] = assay: Relative potency was calculated from the cytotoxicity against HeLa S3 cells (aplyronine A = 100); format: functional, Homo sapiens
Oryctolagus cuniculus [2] = species on record: Oryctolagus cuniculus; assay: Relative potency was calculated from the Actin depolymerizing activity (aplyronine A = 100); format: functional
[3] = F-Actin (40 uM) depolymerizing activity which was monitored by measuring flow birefringence.; format: functional, Oryctolagus cuniculus
HeLa [4] = assay: Evaluated for the cytotoxicity against HeLa S3 cells; format: functional, cell-based; settings: Homo sapiens
[5] = Compound was evaluated for the F-Actin (40 uM) depolymerizing activity which was monitored by measuring flow birefringence (Actin was extracted in cold water from the acetone-dried powder of rabbit skeletal muscle); Inactive; format: functional, tissue-based, Oryctolagus cuniculus, Muscle tissue
Oryctolagus cuniculus [6] = species on record: Oryctolagus cuniculus; assay: Relative potency was calculated from the Actin depolymerizing activity (aplyronine A = 100); Inactive; format: functional
[7] = Compound was evaluated for the F-Actin (40 uM) depolymerizing activity* which was monitored by measuring flow birefringence (Actin was extracted in cold water from the acetone-dried powder of rabbit skeletal muscle); format: functional, tissue-based, Oryctolagus cuniculus, Muscle tissue
[8] = Compound was evaluated for the F-Actin (40 uM) depolymerizing activity which was monitored by measuring flow birefringence (Actin was extracted in cold water from the acetone-dried powder of rabbit skeletal muscle); format: functional, tissue-based, Oryctolagus cuniculus, Muscle tissue

## CO[C@H]1CC[C@@H](C)[C@@H](O)[C@H](C)[C@H](O)C/C=C/C=C/C(=O)O[C@H]([C@@H](C)[C@@H](O)[C@@H](C)CC[C@@H](OC(=O)C(C)N(C)C)[C@H](C)[C@H](OC(C)=O)[C@H](C)/C=C/N(C)C=O)C/C=C/[C@H](OC)C[C@H](C)C/C=C/1C (stereo not given in full) [APLYRONINE C]
HeLa [1]
  Relative potency: 2.3
Oryctolagus cuniculus [2]
  Relative potency: 97
[3]
  IC50: 32 µM
HeLa [4]
  IC50: 0.0212 µg/mL (≈ 0.0224 µM)

## CO[C@@H]1/C=C/C[C@@H](C)C[C@@H](OC)/C=C/C[C@@H]([C@@H](C)[C@@H](O)[C@@H](C)CC[C@@H](OC(=O)CN(C)C)[C@H](C)[C@H](OC(C)=O)[C@H](C)CCO)OC(=O)/C=C/C=C/C[C@@H](OC(=O)CN(C)C)[C@@H](C)[C@H](O)[C@H](C)CC1
HeLa [1]
  Relative potency: <0.02
Oryctolagus cuniculus [2]
  Relative potency: 63
[3]
  IC50: 49 µM
HeLa [4]
  IC50: > 2 µg/mL

## COCC(C(=O)O[C@H]1[C@H](C)[C@H](O)C/C=C/C=C/C(=O)O[C@H]([C@@H](C)[C@@H](O)[C@@H](C)CC[C@@H](OC(=O)C(C)N(C)C)[C@H](C)[C@H](OC(C)=O)[C@H](C)/C=C/N(C)C=O)C/C=C/[C@H](OC)C[C@H](C)C/C=C(\C)[C@@H](OC)CC[C@H]1C)N(C)C (stereo not given in full) [APLYRONINE B]
HeLa [1]
  Relative potency: 15
Oryctolagus cuniculus [2]
  Relative potency: 94
[3]
  IC50: 33 µM
HeLa [4]
  IC50: 0.00311 µg/mL (≈ 0.00289 µM)

## COCC(C(=O)O[C@@H]1C/C=C/C=C/C(=O)O[C@H]([C@@H](C)[C@@H](O)[C@@H](C)CC[C@@H](OC(=O)C(C)N(C)C)[C@H](C)[C@H](OC(C)=O)[C@H](C)CCO)C/C=C/[C@H](OC)C[C@H](C)C/C=C/[C@@H](OC)CC[C@@H](C)[C@@H](O)[C@@H]1C)N(C)C (stereo not given in full)
HeLa [1]
  Relative potency: 18
Oryctolagus cuniculus [2]
  Relative potency: 82
[3]
  IC50: 38 µM
HeLa [4]
  IC50: 0.0026 µg/mL (≈ 0.00254 µM)

## COCC(C(=O)O[C@@H]1C/C=C/C=C/C(=O)O[C@H]([C@@H](C)[C@@H](O)[C@@H](C)CC[C@@H](OC(=O)C(C)N(C)C)[C@H](C)[C@H](OC(C)=O)[C@H](C)CCO)C/C=C/[C@H](OC)C[C@H](C)C/C=C(\C)[C@@H](OC)CC[C@@H](C)[C@@H](O)[C@@H]1C)N(C)C (stereo not given in full)
HeLa [1]
  Relative potency: 28
Oryctolagus cuniculus [2]
  Relative potency: 40
[3]
  IC50: 78 µM
HeLa [4]
  IC50: 0.00172 µg/mL (≈ 0.00166 µM)

## COCC(C(=O)O[C@@H]1C/C=C/C=C/C(=O)OCC/C=C/[C@H](OC)C[C@H](C)C/C=C(\C)[C@@H](OC)CC[C@@H](C)[C@@H](O)[C@@H]1C)N(C)C (stereo not given in full)
HeLa [1]
  Relative potency: 0.023
HeLa [4]
  IC50: 2.1 µg/mL (≈ 3.38 µM)

## COCC(C(=O)O[C@@H]1C/C=C/C=C/C(=O)OCC/C=C/[C@H](OC)C[C@H](C)C/C=C/[C@@H](OC)CC[C@@H](C)[C@@H](O)[C@@H]1C)N(C)C (stereo not given in full)
[5]
  IC50: Not Active
Oryctolagus cuniculus [6]
  Relative potency: inactive

## COCC(C(=O)O[C@@H]1CCCCCC(=O)O[C@H]([C@@H](C)[C@@H](O)[C@@H](C)CC[C@@H](OC(=O)C(C)N(C)C)[C@H](C)[C@H](OC(C)=O)[C@H](C)CCO)C/C=C/[C@H](OC)C[C@H](C)C/C=C(\C)[C@@H](OC)CC[C@@H](C)[C@@H](O)[C@@H]1C)N(C)C (stereo not given in full)
HeLa [1]
  Relative potency: 0.84
Oryctolagus cuniculus [2]
  Relative potency: 44
[3]
  IC50: 70 µM
HeLa [4]
  IC50: 0.057 µg/mL (≈ 0.0547 µM)

## CO[C@H]1CC[C@@H](C)[C@@H](O)[C@H](C)[C@H](O)C/C=C/C=C/C(=O)O[C@H]([C@@H](C)[C@@H](O)[C@@H](C)CC[C@@H](O)[C@H](C)[C@H](OC(C)=O)[C@H](C)/C=C/N(C)C=O)C/C=C/[C@H](OC)C[C@H](C)C/C=C/1C
HeLa [1]
  Relative potency: 0.42
Oryctolagus cuniculus [2]
  Relative potency: 86
[3]
  IC50: 35 µM
HeLa [4]
  IC50: 0.113 µg/mL (≈ 0.133 µM)

## COCC(C(=O)O[C@@H]1C/C=C/C=C/C(=O)O[C@H]([C@@H](C)[C@@H](OC(C)=O)[C@@H](C)CC[C@@H](OC(=O)C(C)N(C)C)[C@H](C)[C@H](OC(C)=O)[C@H](C)/C=C/N(C)C=O)C/C=C/[C@H](OC)C[C@H](C)C/C=C(\C)[C@@H](OC)CC[C@@H](C)[C@@H](OC(C)=O)[C@@H]1C)N(C)C (stereo not given in full)
HeLa [1]
  Relative potency: 0.22
Oryctolagus cuniculus [2]
  Relative potency: 54
[3]
  IC50: 57 µM
HeLa [4]
  IC50: 0.216 µg/mL (≈ 0.186 µM)

## COCC(C(=O)O[C@@H]1C/C=C/C=C/C(=O)O[C@H]([C@@H](C)[C@@H](O)[C@@H](C)CC[C@@H](OC(=O)C(C)N(C)C)[C@H](C)[C@H](OC(C)=O)[C@H](C)/C=C/N(C)C=O)C/C=C/[C@H](OC)C[C@H](C)C/C=C(\C)[C@@H](OC)CC[C@@H](C)[C@@H](O)[C@@H]1C)N(C)C (stereo not given in full) [APLYRONINE A]
HeLa [1]
  Relative potency: 100
Oryctolagus cuniculus [2]
  Relative potency: 100
[3]
  IC50: 31 µM
HeLa [4]
  IC50: 0.00048 µg/mL (≈ 0.000446 µM)

## C[C@H]([C@H](O)[C@H](C)CCO)[C@H](O)CC[C@H](C)[C@H](O)[C@H](C)[C@@H](O)CCO
Oryctolagus cuniculus [2]
  Relative potency: 0.41
[7]
  IC50: 7600 µM

## COCC(C(=O)O[C@@H]1C/C=C/C=C/C(=O)O[C@H]([C@@H](C)[C@@H](O)[C@@H](C)COC(=O)C(C)N(C)C)C/C=C/[C@H](OC)C[C@H](C)C/C=C/[C@@H](OC)CC[C@@H](C)[C@@H](O)[C@@H]1C)N(C)C (stereo not given in full)
Oryctolagus cuniculus [2]
  Relative potency: 1.7
[3]
  IC50: 1800 µM

## COCC(C(=O)O[C@@H]1C/C=C/C=C/C(=O)O[C@H]([C@@H](C)[C@@H](O)[C@@H](C)CC[C@@H](O)[C@H](C)[C@H](OC(C)=O)[C@H](C)/C=C/N(C)C=O)C/C=C/[C@H](OC)C[C@H](C)C/C=C(\C)[C@@H](OC)CC[C@@H](C)[C@@H](O)[C@@H]1C)N(C)C (stereo not given in full)
HeLa [1]
  Relative potency: 47
Oryctolagus cuniculus [2]
  Relative potency: 86
[3]
  IC50: 35 µM
HeLa [4]
  IC50: 0.00103 µg/mL (≈ 0.00105 µM)

## COCC(C(=O)O[C@@H]1C/C=C/C=C/C(=O)O[C@H]([C@@H](C)[C@@H](O)[C@@H](C)CC[C@@H](O)[C@H](C)[C@H](OC(C)=O)[C@H](C)CCO)C/C=C/[C@H](OC)C[C@H](C)C/C=C/[C@@H](OC)CC[C@@H](C)[C@@H](O)[C@@H]1C)N(C)C (stereo not given in full)
HeLa [1]
  Relative potency: 1.3
Oryctolagus cuniculus [2]
  Relative potency: 86
[3]
  IC50: 36 µM
HeLa [4]
  IC50: 0.037 µg/mL (≈ 0.04 µM)

## COCC(C(=O)O[C@@H]1C/C=C/C=C/C(=O)O[C@H]([C@@H](C)[C@@H](O)[C@@H](C)CC[C@@H](O)[C@H](C)[C@H](O)[C@H](C)CCO)C/C=C/[C@H](OC)C[C@H](C)C/C=C/[C@@H](OC)CC[C@@H](C)[C@@H](O)[C@@H]1C)N(C)C (stereo not given in full)
HeLa [1]
  Relative potency: 0.58
Oryctolagus cuniculus [2]
  Relative potency: 16
[3]
  IC50: 190 µM
HeLa [4]
  IC50: 0.083 µg/mL (≈ 0.0941 µM)

## COCC(C(=O)O[C@@H]1C/C=C/C=C/C(=O)O[C@H]([C@@H](C)[C@@H](O)[C@@H](C)CO)C/C=C/[C@H](OC)C[C@H](C)C/C=C/[C@@H](OC)CC[C@@H](C)[C@@H](O)[C@@H]1C)N(C)C (stereo not given in full)
HeLa [1]
  Relative potency: <0.02
Oryctolagus cuniculus [2]
  Relative potency: 0.69
[8]
  IC50: 4500 µM
HeLa [4]
  IC50: > 2 µg/mL

— ChEMBL document CHEMBL1129823, “Cytotoxicity and actin depolymerizing activity of aplyronine A, a potent antitumor macrolide of marine origin, and the natural and artificial analogs” (Bioorg Med Chem Lett, 1997)
